Laboratory results as given in PubChem BioAssay (NCI).
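A five-concentration, 48-hour dose response in 96-well plates underlies each endpoint, interpolated linearly between surrounding concentrations. TGI denotes the concentration required for complete inhibition of growth.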

How the values were obtained:
Assay in all cases: growth of human tumour cells (NCI), 48 h
NCI-H226 lung = tested on: NCI-H226 lung
M14 melanoma = tested on: M14 melanoma
RXF 393 renal = tested on: RXF 393 renal
MOLT-4 leukemia = tested on: MOLT-4 leukemia
CCRF-CEM leukemia = tested on: CCRF-CEM leukemia
RPMI-8226 leukemia = tested on: RPMI-8226 leukemia
SR leukemia = tested on: SR leukemia
MALME-3M melanoma = tested on: MALME-3M melanoma
NCI/ADR-RES ovarian = tested on: NCI/ADR-RES ovarian
HOP-92 NSCLC = tested on: HOP-92 NSCLC
DU-145 prostate = tested on: DU-145 prostate
SK-MEL-2 melanoma = tested on: SK-MEL-2 melanoma
PC-3 prostate = tested on: PC-3 prostate
BT-549 breast = tested on: BT-549 breast
SK-MEL-28 melanoma = tested on: SK-MEL-28 melanoma
OVCAR-4 ovarian = tested on: OVCAR-4 ovarian
HOP-62 NSCLC = tested on: HOP-62 NSCLC
SNB-75 CNS = tested on: SNB-75 CNS
MDA-N = tested on: MDA-N
NCI-H522 lung = tested on: NCI-H522 lung
LOX IMVI melanoma = tested on: LOX IMVI melanoma
IGROV1 ovarian = tested on: IGROV1 ovarian
CAKI-1 renal = tested on: CAKI-1 renal
KM12 colon = tested on: KM12 colon
SN12C renal = tested on: SN12C renal
K-562 leukemia = tested on: K-562 leukemia
HCT-116 colon = tested on: HCT-116 colon
NCI-H23 lung = tested on: NCI-H23 lung
HL-60(TB) leukemia = tested on: HL-60(TB) leukemia
MDA-MB-231 breast = tested on: MDA-MB-231 breast
MDA-MB-435 = tested on: MDA-MB-435
UACC-62 melanoma = tested on: UACC-62 melanoma
A498 renal = tested on: A498 renal
A549 NSCLC = tested on: A549 NSCLC
U251 CNS = tested on: U251 CNS
SK-MEL-5 melanoma = tested on: SK-MEL-5 melanoma
SW-620 colon = tested on: SW-620 colon
TK-10 renal = tested on: TK-10 renal
HT29 colon = tested on: HT29 colon
SNB-19 CNS = tested on: SNB-19 CNS
SK-OV-3 ovarian = tested on: SK-OV-3 ovarian
NCI-H460 lung = tested on: NCI-H460 lung
ACHN renal = tested on: ACHN renal
HCT-15 colon = tested on: HCT-15 colon
MCF7 breast = tested on: MCF7 breast
COLO 205 colon = tested on: COLO 205 colon
SF-295 CNS = tested on: SF-295 CNS
OVCAR-8 ovarian = tested on: OVCAR-8 ovarian
UO-31 renal = tested on: UO-31 renal
T-47D breast = tested on: T-47D breast
UACC-257 melanoma = tested on: UACC-257 melanoma
SF-539 CNS = tested on: SF-539 CNS
OVCAR-3 ovarian = tested on: OVCAR-3 ovarian
786-0 renal = tested on: 786-0 renal
HCC-2998 colon = tested on: HCC-2998 colon
OVCAR-5 ovarian = tested on: OVCAR-5 ovarian
EKVX NSCLC = tested on: EKVX NSCLC
SF-268 CNS = tested on: SF-268 CNS
HS 578T breast = tested on: HS 578T breast

## Cn1c(-c2ccco2)ccc1-c1ccc(C=O)o1
NCI-H226 lung
  TGI: > 100 µM
M14 melanoma
  TGI: > 100 µM
RXF 393 renal
  TGI: > 100 µM
MOLT-4 leukemia
  TGI: 74.6 µM
CCRF-CEM leukemia
  TGI: > 100 µM
RPMI-8226 leukemia
  TGI: > 100 µM
SR leukemia
  TGI: > 100 µM
MALME-3M melanoma
  TGI: > 100 µM
NCI/ADR-RES ovarian
  TGI: > 100 µM
HOP-92 NSCLC
  TGI: > 100 µM
DU-145 prostate
  TGI: > 100 µM
SK-MEL-2 melanoma
  TGI: > 100 µM
PC-3 prostate
  TGI: > 100 µM
BT-549 breast
  TGI: > 100 µM
SK-MEL-28 melanoma
  TGI: > 100 µM
OVCAR-4 ovarian
  TGI: > 100 µM
HOP-62 NSCLC
  TGI: > 100 µM
SNB-75 CNS
  TGI: > 100 µM
MDA-N
  TGI: > 100 µM
NCI-H522 lung
  TGI: > 100 µM
LOX IMVI melanoma
  TGI: > 100 µM
IGROV1 ovarian
  TGI: > 100 µM
CAKI-1 renal
  TGI: 55.2 µM
KM12 colon
  TGI: > 100 µM
SN12C renal
  TGI: > 100 µM
K-562 leukemia
  TGI: > 100 µM
HCT-116 colon
  TGI: 53.1 µM
NCI-H23 lung
  TGI: > 100 µM
HL-60(TB) leukemia
  TGI: 52.2 µM
MDA-MB-231 breast
  TGI: > 100 µM
MDA-MB-435
  TGI: > 100 µM
UACC-62 melanoma
  TGI: > 100 µM
A498 renal
  TGI: > 100 µM
A549 NSCLC
  TGI: > 100 µM
U251 CNS
  TGI: > 100 µM
SK-MEL-5 melanoma
  TGI: > 100 µM
SW-620 colon
  TGI: > 100 µM
TK-10 renal
  TGI: > 100 µM
HT29 colon
  TGI: > 100 µM
SNB-19 CNS
  TGI: > 100 µM
SK-OV-3 ovarian
  TGI: > 100 µM
NCI-H460 lung
  TGI: > 100 µM
ACHN renal
  TGI: > 100 µM
HCT-15 colon
  TGI: > 100 µM
MCF7 breast
  TGI: > 100 µM
COLO 205 colon
  TGI: > 100 µM
SF-295 CNS
  TGI: > 100 µM
OVCAR-8 ovarian
  TGI: > 100 µM
UO-31 renal
  TGI: > 100 µM
T-47D breast
  TGI: > 100 µM
UACC-257 melanoma
  TGI: > 100 µM
SF-539 CNS
  TGI: 48.8 µM
OVCAR-3 ovarian
  TGI: > 100 µM
786-0 renal
  TGI: > 100 µM
HCC-2998 colon
  TGI: > 100 µM
OVCAR-5 ovarian
  TGI: > 100 µM
EKVX NSCLC
  TGI: > 100 µM

## O=C1c2ccccc2C(=O)N1CCc1ncc(-c2ccccc2)[nH]1
NCI-H226 lung
  TGI: > 100 µM
M14 melanoma
  TGI: > 100 µM
MOLT-4 leukemia
  TGI: > 100 µM
CCRF-CEM leukemia
  TGI: > 100 µM
SR leukemia
  TGI: > 100 µM
MALME-3M melanoma
  TGI: > 100 µM
NCI/ADR-RES ovarian
  TGI: > 100 µM
DU-145 prostate
  TGI: > 100 µM
SK-MEL-2 melanoma
  TGI: > 100 µM
PC-3 prostate
  TGI: > 100 µM
BT-549 breast
  TGI: > 100 µM
SK-MEL-28 melanoma
  TGI: > 100 µM
SF-268 CNS
  TGI: > 100 µM
OVCAR-4 ovarian
  TGI: > 100 µM
HOP-62 NSCLC
  TGI: > 100 µM
SNB-75 CNS
  TGI: > 100 µM
MDA-N
  TGI: > 100 µM
NCI-H522 lung
  TGI: > 100 µM
HS 578T breast
  TGI: > 100 µM
IGROV1 ovarian
  TGI: > 100 µM
CAKI-1 renal
  TGI: > 100 µM
KM12 colon
  TGI: > 100 µM
SN12C renal
  TGI: > 100 µM
K-562 leukemia
  TGI: > 100 µM
HCT-116 colon
  TGI: > 100 µM
NCI-H23 lung
  TGI: > 100 µM
HL-60(TB) leukemia
  TGI: > 100 µM
MDA-MB-231 breast
  TGI: > 100 µM
UACC-62 melanoma
  TGI: > 100 µM
A498 renal
  TGI: > 100 µM
A549 NSCLC
  TGI: > 100 µM
U251 CNS
  TGI: > 100 µM
SK-MEL-5 melanoma
  TGI: > 100 µM
SW-620 colon
  TGI: > 100 µM
TK-10 renal
  TGI: > 100 µM
HT29 colon
  TGI: > 100 µM
SNB-19 CNS
  TGI: > 100 µM
SK-OV-3 ovarian
  TGI: > 100 µM
NCI-H460 lung
  TGI: > 100 µM
ACHN renal
  TGI: > 100 µM
HCT-15 colon
  TGI: > 100 µM
MCF7 breast
  TGI: > 100 µM
COLO 205 colon
  TGI: > 100 µM
SF-295 CNS
  TGI: > 100 µM
OVCAR-8 ovarian
  TGI: > 100 µM
UO-31 renal
  TGI: > 100 µM
UACC-257 melanoma
  TGI: > 100 µM
SF-539 CNS
  TGI: > 100 µM
OVCAR-3 ovarian
  TGI: > 100 µM
786-0 renal
  TGI: > 100 µM
HCC-2998 colon
  TGI: > 100 µM
OVCAR-5 ovarian
  TGI: > 100 µM
EKVX NSCLC
  TGI: > 100 µM
